The record followed here is EP0333356A2, “Hirudin peptides” (BIOGEN, INC., priority 1988, dated 1989).

In one assay the target is T1, bovine plasma thrombin (Bos taurus, UniProt P00735).
T1 construct: bovine plasma thrombin, Calbiochem, Behring Diagnostics, La Jolla, CA; purchased Calbiochem, Behring Diagnostics, La Jolla, CA; host or cells: bovine plasma
Description: thrombin-catalyzed hydrolysis of tosyl-Gly-Pro-Arg-p-nitroanilide (Chromozym TH). The class given is biochemical. The following applies: 4.2 x 10⁻⁶ M to 2.1 x 10⁻⁷ M peptide. The method, then: We analyzed the hirudin peptides of this invention for inhibition of thrombin-catalyzed hydrolysis of the tripeptidyl p-nitroanilide substrate tosyl-Gly-Pro-Arg-p-nitroanilide (Chromozym TH, Boehringer-Mannheim, Indianapolis, In.) spectrophotometrically at 420 nm on a Cary 219 double-beam spectrophotometer. Reactions were prepared by mixing 10 µl of thrombin solution (bovine plasma thrombin, Calbiochem, Behring Diagnostics, La Jolla, CA, 0.1 mg/ml in 0.1 M Tris-HCl, pH 7.4, 0.15 M NaCl) with 1.0 ml of 0.1 M Tris-HCl, pH 7.4, 0.15 M NaCl buffer. We then added 25 µl of substrate solution (4 mg/ml tosyl-Gly-Pro-Arg-p-nitroanilide in the above buffer) and varying amounts of hirudin₄₅₋₆₄ (as prepared in Example 4) from a 1.0 mg/ml stock solution to a final fixed volume of 1.035 ml, with final concentrations of thrombin and substrate of 2.8 x 10⁻⁸ M and 1.4 x 10⁻⁴ M, respectively.

A further assay concerns the target T2, thrombin (Homo sapiens, UniProt P00734).
T2 construct: pooled, normal human plasma (George King Biomedical, Inc., Overland Park, Kansas); tissue George King Biomedical, Inc; host or cells: pooled normal human plasma
Description: activated partial thromboplastin time (APTT) assay of pooled normal human plasma. It is filed as biochemical. The following applies: result in words. The method, then: Anticoagulant activity was determined by assaying APTT of pooled, normal human plasma (George King Biomedical, Inc., Overland Park, Kansas) (diluted 4:1, v/v, plasma:water) with a Coag-A-Mate 2001 instrument (General Diagnostics, Inc.. Morris Plains, New Jersey). Specifically, diluted plasma was mixed with stock solutions of hirudin peptides at concentrations ranging from 750 µg/ml in water, for non-sulfated hirudin peptides, to 35 µg/ml in water for sulfated hirudin peptides. The plasma and hirudin peptides were mixed to a final volume of 125 µl prior to each APTT determination.
We began the APTT assay by adding 92 µl of a crude thromboplastin suspension (General Diagnostics) and 100 µl of 0.3 M calcium chloride reagent to each well of a Coag-A-Mate dish (General Diagnostics) per APTT determination, to a final volume of assay mixture per well of 317 µl. The calcium chloride was prepared fresh prior to each assay. Activation times were constant at 180 sec.

With `CC[C@H](C)[C@H](NC(=O)[C@H](CCC(=O)O)NC(=O)[C@H](CCC(=O)O)NC(=O)[C@H](Cc1ccccc1)NC(=O)[C@H](CC(=O)O)NC(=O)CNC(=O)[C@H](CC(N)=O)NC(=O)[C@H](CC(N)=O)NC(=O)[C@H](Cc1c[nH]cn1)NC(=O)[C@H](CO)NC(=O)[C@H](CCC(=O)O)NC(=O)[C@@H]1CCCN1C(=O)[C@H](CC(N)=O)NC(=O)[C@@H]1CCCN1C(=O)[C@@H](N)[C@@H](C)O)C(=O)N1CCC[C@H]1C(=O)N[C@@H](CCC(=O)O)C(=O)N[C@@H](CCC(=O)O)C(=O)N[C@@H](Cc1ccc(O)cc1)C(=O)N[C@@H](CC(C)C)C(=O)O` [hirudin₄₅₋₆₄], the “inhibitory effect on thrombin-catalyzed hydrolysis of the artificial substrate” value against bovine plasma thrombin is “no measurable inhibitory effect”. For “H-NGDFEEIPEE-OH [des(Tyr-Leu) hirudin₅₃₋₆₂]”, the “increase in clotting time (APTT)” value on thrombin is on record as “no comparative increase in clotting time”; on thrombin (listed as hirudin₅₃₋₆₂) it was “no reasonable inhibitory activity”.
